The record followed here is article PMC2829052, “Mycobacterium tuberculosis Peptides Presented by HLA-E Molecules Are Targets for Human CD8^+ T-Cells with Cytotoxic as well as Regulatory Activity” (PLoS Pathogens, 2010).

Where no end group is shown, it is not given here. A value given as a limit tells only on which side of the number the result lay.

The first assay concerns CD3+CD8+CD56- T-cells.
Test: not given
In kind it is cell-based, human. As to conditions: 10 PPD responders; recognition = >10% proliferating CD3+CD8+CD56- T-cells.
Take RLASCRDAL-OH [Peptide 61, RLASCRDAL]: the “number of PPD responding adult donors recognizing the peptide” value is “not by any”.

The assay is the same for the next values; noted with them: donor 2; PBMCs, peptide 10 µg/ml (PHA 2 µg/ml, PPD 5 µg/ml), IL-7, IL-2 day 7, CFSE read day 10.
As for FLLPRGLAI-OH [Peptide 54], the “percentage of proliferation within CD3+CD8+CD56- cells” value (“percentage” for short) is reported as 15.8%.

Staying with this assay, now noted: donor 4; PBMCs, peptide 10 µg/ml (PHA 2 µg/ml, PPD 5 µg/ml), IL-7, IL-2 day 7, CFSE read day 10.
On to FLLPRGLAI-OH [Peptide 54], for which the “percentage” value turned out to be 0.2%.

Still in this assay, the particulars now being: donor 6; PBMCs, peptide 10 µg/ml (PHA 2 µg/ml, PPD 5 µg/ml), IL-7, IL-2 day 7, CFSE read day 10.
On to FLLPRGLAI-OH [Peptide 54], for which the “percentage” value is listed as 1.6%.

Another assay concerns CD8+ T-cells.
Test: not given
Details: not given
The class given is cell-based, human.
As to RLASCRDAL-OH [Peptide 61, RLASCRDAL], the “number of BCG vaccinees recognizing the peptide” value is on record as 2.

In another assay the target is T1, recombinant human HLA-E*0103 (Homo sapiens, UniProt P13747).
T1 construct: made in house; host or cells: E. coli
Put plainly: biochemical.
Details: not given
In kind it is binding.
Consider RMPPLGHEL [Peptide 62], for which the IC50 worked out at 4 µM.

For the molecule VSNLRTGKL-OH [Peptide 27], the IC50 was greater than 50 µM.

Consider VLLPGLPYL [Peptide 50], for which the IC50 was 8 µM.

On to WMCDRAVDL-OH [Peptide 9], for which the IC50 was greater than 50 µM.

Regarding LMHYRGELL [Peptide 29], the IC50 is 20 µM.

On to IEPRGAQAL-OH [Peptide 57, IEPRGAQAL], for which the IC50 is greater than 50 µM.

For the molecule `CSCC[C@H](NC(=O)[C@@H](N)CCC(N)=O)C(=O)N[C@@H](CCCCN)C(=O)N[C@@H](Cc1ccccc1)C(=O)N[C@@H](Cc1ccc(O)cc1)C(=O)N[C@@H](C)C(=O)N[C@H](C(=O)N[C@@H](C)C(=O)N[C@@H](CC(C)C)C(=O)O)C(C)C` [Peptide 5, QMKFYAVAL], the IC50 came out at 1.5 µM.

In the case of FMTRLGPLL [Peptide 60], the IC50 was determined as 37 µM.

EMLTSRGLL-OH [Peptide 37]: the IC50 was greater than 50 µM.

Take WLPPLLTNL [Peptide 69]: the IC50 is 39 µM.

In the case of REPRRGPRL-OH [Peptide 51], the IC50 was greater than 50 µM.

Take RPANLAFFL [Peptide 59]: the IC50 came to 1.3 µM.

With LPAERAHEL-OH [Peptide 31], the IC50 was greater than 50 µM.

The assay is the same for the next values; noted with them: concentration of peptide reducing fluorescence of standard peptide VMAPC(Fl)TLLL (100 fmol) by 50%; […]; gel filtration HPLC, emission 528 nm; at least two separate experiments; read-out: Binding.
SMADRAENL-OH [Peptide 1]: the IC50 is greater than 50 µM.

As for PMAPLAPLL [Peptide 20], the IC50 amounted to 3 µM.

Consider VEAFRTRPL-OH [Peptide 16], for which the IC50 was greater than 50 µM.

As for VLPACLGIL [Peptide 67], the IC50 was found to be 12 µM.

Turning to DMLGRAGGL-OH [Peptide 12], the IC50 is greater than 50 µM.

On to EMVLRADQL-OH [Peptide 11], for which the IC50 is greater than 50 µM.

In the case of TSADRAVVL [Peptide 28], the IC50 was found to be 39 µM.

On to LMGALAVVL [Peptide 26], for which the IC50 turned out to be 21 µM.

On to PMKRTALAL [Peptide 6, PMKRTALAL], for which the IC50 is 18 µM.

Regarding `CC[C@H](C)[C@H](N)C(=O)N[C@@H](CCSC)C(=O)N[C@@H](C)C(=O)N[C@@H](CC(N)=O)C(=O)N[C@@H](CCCNC(=N)N)C(=O)N[C@@H](C)C(=O)N[C@@H](CCC(N)=O)C(=O)N[C@H](C(=O)N[C@@H](CC(C)C)C(=O)O)C(C)C` [Peptide 3], the IC50 was found to be 0.4 µM.

Take KMNAKAATL [Peptide 4]: the IC50 stood at 15 µM.

In the case of TMITFRLRL [Peptide 33], the IC50 is 2.4 µM.

Regarding RMAATAQVL [Peptide 14], the IC50 worked out at 2 µM.

For AMAGSIDLL [Peptide 36], the IC50 was determined as 34 µM.

Regarding VMMSEIAGL [Peptide 32], the IC50 was found to be 13 µM.

For RSCPRLTIL-OH [Peptide 64], the IC50 was greater than 50 µM.

Regarding PMADIAAAL-OH [Peptide 23, PMADIAAAL], the IC50 was greater than 50 µM.

Turning to VMTTVLATL [Peptide 34], the IC50 is 1.8 µM.

On to EMGRAPLDL-OH [Peptide 43], for which the IC50 is greater than 50 µM.

FLAADALVL-OH [Peptide 15]: the IC50 is greater than 50 µM.

VMATRRNVL [Peptide 55]: the IC50 was determined as 16 µM.

On to `CC(C)C[C@H](NC(=O)[C@H](CC(C)C)NC(=O)[C@@H]1CCCN1C(=O)[C@H](C)NC(=O)[C@H](CCCCN)NC(=O)[C@H](C)NC(=O)[C@@H]1CCCN1C(=O)[C@H](CC(C)C)NC(=O)[C@@H](N)CCCNC(=N)N)C(=O)O` [Peptide 44], for which the IC50 amounted to 0.03 µM.

Take SMAGRAGQL-OH [Peptide 2]: the IC50 is greater than 50 µM.

Turning to DLPSRLGKI-OH [Peptide 58], the IC50 was greater than 50 µM.

GMGMVGTAL-OH [Peptide 35, GMGMVGTAL]: the IC50 is greater than 50 µM.

As to GLDSRAYRL-OH [Peptide 18], the IC50 was greater than 50 µM.

With QLAPGLQLI-OH [Peptide 46], the IC50 is greater than 50 µM.

For FLLPRGLAI-OH [Peptide 54], the IC50 is greater than 50 µM.

As for LMGAEADAL-OH [Peptide 17, LMGAEADAL], the IC50 is greater than 50 µM.

Turning to VMAPDAVRI [Peptide 63], the IC50 worked out at 31 µM.

Take GLDARAYRL-OH [Peptide 19]: the IC50 is greater than 50 µM.

For the molecule VLRPGGHFL [Peptide 68], the IC50 is 1.8 µM.

Take RLGRLLNRI-OH [Peptide 56]: the IC50 is greater than 50 µM.

Regarding `CC[C@H](C)[C@H](N)C(=O)N[C@@H](CC(C)C)C(=O)N1CCC[C@H]1C(=O)N[C@@H](CO)C(=O)N[C@@H](CC(=O)O)C(=O)N[C@@H](C)C(=O)N1CCC[C@H]1C(=O)N[C@H](C(=O)N[C@@H](CC(C)C)C(=O)O)C(C)C` [Peptide 49], the IC50 was found to be 0.2 µM.

Turning to GMNVTAPAL [Peptide 7, GMNVTAPAL], the IC50 turned out to be 8 µM.

Consider RLRPELAGL [Peptide 52], for which the IC50 stood at 46 µM.

With RLANLLPLI [Peptide 48], the IC50 is 32 µM.

For another assay, the system named is TGFβ1.
Test: not given
In kind it is cell-based, human. As to conditions: Rp15 1-1 clone without Tregs; data not shown.
With “LAP: recombinant latency associated peptide, reverts active TGFβ to a latent, inactive form (R&D systems)”, the “increased proliferation on addition of LAP to the indicator clone only” value is recorded as no more than 20%.

The same assay, now with this note: Tregs + Rp15 1-1, 0.5 µg/ml cognate peptide, HLA-DR3+ APCs, 3 days.
“LAP: recombinant latency associated peptide, reverts active TGFβ to a latent, inactive form (R&D systems)”: the “increase of proliferation on addition of LAP to co-cultures of Tregs and indicator clones” value was “over 40%”.
